The text below walks through data of US9446017B2, “Compositions and methods for treating herpes simplex virus” (Augusta University Research Institute, Inc., priority 2005, dated 2016).

Structures are written as SMILES. “And” between values parts separate entries of the source, which are not always exact repeats. Equal values may be shown once. Read-outs that look alike come from different tables or passages of the source.

Series [1] deals with HSV-1. To be noted: antibodies against gB, gD, and a capsid protein; cited from earlier work.
Series [2] has as its system HSV1. Put plainly: PCR-based assay of viral DNA, band intensity on agarose gel. It counts as cell-based. To be noted: for DNA band intensity, primers for glycoprotein D, GFP and VP11/12: HSV1 treated with 75 μM. The text has this:
Nine sets of primers were designed to prime different regions of the HSV1 genome based on published sequences. Two sets of primers were designed to target HSV I glycoprotein D. These include 5′-[…]-3′ (SEQ ID NO:2) for the forward and 5′-[…]-3′ (SEQ ID NO:3) for the reverse. The second set includes 5′-[…]-3′ (SEQ ID NO:4) for the forward and 5′[…]-3′ (SEQ ID NO:5) for the reverse. Next, two sets of primers were designed to target HSV1 glycoprotein B. They are the following: 5′[…]-3′ (SEQ ID NO:6) for the forward and 5′-[…]-3′ (SEQ ID NO:7) for the reverse. The second set includes 5′-[…]-3′(SEQ ID NO:8) for the forward and 5′-[…]-3′ (SEQ ID NO:9) for the reverse. A third set of primers had been previously designed and published on the book Herpes Simplex Virus Protocols by S. Moira Brown and Alasdair R. MacLean. The set includes 5′[…]-3′ (SEQ ID NO:10) for the forward and 5′-[…]-3′ (SEQ ID NO:11) for the reverse. A set of primers was designed to target the Green Fluorescent protein attached to the UL46 gene of HSV 1. It includes 5′-[…]-3′ (SEQ ID NO:14) for the forward and 5′-[…]-3′ (SEQ ID NO:15) for the reverse. A second set of primers designed for the GFP had been previously designed 42. It includes 5′-[…]-3′ (SEQ ID NO:12) for the forward and 5′-[…]-3′ (SEQ ID NO:13) for the reverse. Finally, two sets of primers were designed to target HSV1 tegument protein VP11/12 that corresponds to the UL46 gene. They are the following: 5′-[…]-3′ (SEQ ID NO:16) for the forward and 5′-[…]-3′ (SEQ ID NO:17) for the reverse. The second set includes 5′-[…]-3′ (SEQ ID NO:18) for the forward and 5′[…]-3′ (SEQ ID NO:19) for the reverse. The reaction mix included 1 μL of the extracted DNA, 1 μL of forward and 1 μL of reverse primers, 12.5 μL of Master Mix, and 9.5 μL of diH2O. The mix was put into PCR tubes and placed into a Labnet MultiGene II thermal cycler (Labnet International, Edison N.J.). The reaction profile was initial denaturation at 95° C. for 2 minutes followed by cycles of denaturation at 95° C. for 30 seconds, annealing at 60° C. for 1 minute and extension at 72° C. for 30 seconds. The last step included a final extension period at 72° C. for 10 minutes. […]
Polymerase chain reaction products were analyzed and visualized on 1% agarose gels. […] The gel was then analyzed under UV light using Kodak Image Station 440 CF (Perkin Elmer Life Sciences, Waltham, Mass.).
Cells were grown on 60 mm plates and allowed to reach confluency. […] DNA concentration was then measured by using a Nanodrop Specrophotometer.
DNA extracted from HSV1/Vero cells and EGCG-ester HSV1/Vero cells was purified and isolated and the amount and purity was determined by Nanodrop spectrophotometer ND1000. […]

Series [3] relates to HSV-1. To be noted: cited from earlier work.
Another series relates to HSV. The series is described as follows: HSV plaque assays using Vero cells with and without EGCG (Example 1). To be noted: 100 μM applied. It is filed as cell-based. The protocol:
HSV plaque assays using Vero cells were conducted with and without the addition of epigallocatechin gallate (EGCG).

The test system of series [4] is HSV1. The series is described as follows: Fluorescence microscopy of GFP-HSV1 lytic cycle in Vero cells. It is filed as cell-based. To be noted: for virus replication and formation of virions: virus treated with 100 μM. How it is done: Cells were grown on glass cover slips and allowed to reach confluence. They were then infected with either control HSV or previously treated HSV for 1 hour. Time course studies were performed in which the virus was allowed to adsorb for 1 hour and then aspirated. Cells were washed with PBS and media was added to each well. After a period of 8, 10, and 12 hours, cells were then fixed with a 1:1 acetone and methanol solution and visualized under a Zeiss Axiovision fluorescence microscope using differential interference contrast settings.
HSV1/Vero cells were used as positive controls and Vero cells were used as negative control. 75 μM EGCG ester-HSV1/Vero cells were also monitored and compared to controls. GFP-HSV1, DAPI stained nucleus and lysosome stain were used to identify cytopathic effects on Vero cells. The course study was performed in triplicates.

For series [5] the following is noted: for a topical application; cited from earlier work.
Another series concerns HSV-2. To be noted: Vero cells; cited from earlier work.
A further series relates to HSV1-UL46. Put plainly: GFP expression study using a fluorometer. It counts as cell-based. To be noted: 75 μM, virions treated 3 hours, cells 12 hrs. How it is done: GFP expression was studied in Escherichia coli that contained GFP plasmid, and Escherichia coli without GFP plasmid. The fluorometer used was a Tuner Digital Fluorometer-Model 450. Samples were put into 3 mLs of H2O and serial dilutions were performed from the first 3 mLs of each sample. A standard dilution curve was obtained from the serial dilutions. Next, Vero cells were grown on T-75 flasks and allowed to reach confluence. HSV1 virions were treated for 3 hours with 75 μM of polyphenols prior to cell infection. Cells were then infected with treated and non-treated HSV1-UL46 and allowed to adsorb for 1 hour. Viruses that had not been absorbed were then removed by washing the cells twice with PBS. The cells were then incubated at 37° C. for 12 hrs. Cells were then trypsinized and pelleted. Finally, cells were resuspended with 3 mLs of H2O and analyzed for GFP expression using a fluorometer. 3 ml of water was used as the blank sample. The Gain knob was set to 1000 for higher fluorescence sensitivity.
In this experiment, Vero cells only, HSV1/Vero cells, and 75 μM EGCG-ester-HSV1/Vero cells were used to quantitatively measure GFP expression.

Series [6] is described as follows: Stability of the polyphenol (statements, no method). It is filed as physicochemical. To be noted: vaginal pH.
[7] abbreviates: 75 μM, 8 to 12 hours post infection.

For the compound `O=C(O[C@@H]1Cc2c(O)cc(O)cc2O[C@@H]1c1cc(O)c(O)c(O)c1)c1cc(O)c(O)c(O)c1` [EGCG, (−)-epigallocatechin-3-gallate, reference compound], the “drop in immunogold labeling, treated compared to untreated virions” value in the series with HSV-1 [1] is 30% and 40%. Besides, the “DNA band intensity, primers for glycoprotein D, GFP and VP11/12” value with HSV1 [2] was “decreased”. Besides, the viral production result in the series on HSV-1 [3] (Vero cells treated following adsorption and entry of HSV-1) is listed as “does not inhibit the viral production”. Also, the “inhibition of HSV infection” value in the series with HSV-1 [3] (Vero cells) and in the series with HSV-2 was “successfully inhibited HSV infection in a concentration dependent manner” each time. Also, the viral plaques entry with HSV was “no viral plaques were observed”. In the series on HSV1 [4], the “virus replication and formation of virions” value was “not able to replicate and form more virions”. The stability entry in series [5] was “highly unstable and oxidizes very quickly”.

Take `CCCCCCCCCCCCCCCC(=O)Oc1c(O)cc([C@H]2Oc3cc(O)cc(O)c3C[C@H]2OC(=O)c2cc(O)c(O)c(O)c2)cc1O` [EGCG-ester]: the “band intensity of glycoprotein D PCR product, average” value with HSV1 [2] (75 μM, control average 525.29) turned out to be 400.05. Further, the “band intensity of glycoprotein D PCR product (single reading)” value in the series with HSV1 [2] (75 μM, control readings 445.92, 588.24, 541.73) was 353.87 and 438.47 and 407.82. In addition, in the series with HSV1 [2], the “DNA band intensity, primers for glycoprotein D, GFP and VP11/12” value is “further decreased”. Besides, the “GFP expression (fluorometer) compared to HSV1/Vero cells” value in the series with HSV1-UL46 was “much lower”. Moreover, in the series with HSV1 [4] (setting [7]), the “inhibition of HSV1 infections” value is listed as “able to inhibit HSV1 infections” and the “visible viral particles in infected cells” value is reported as “almost no virions”. Moreover, the “GFP expression in green fluorescence images” value in the series with HSV1 [4] (75 μM, 8 hrs post infection) is “almost none”. Moreover, in the series on HSV1 [4], the “virus replication and formation of virions” value is “not able to replicate and form more virions”. Also, in series [6], the stability entry is “stable at vaginal pH”.
